{"source": "patent US20220323437A1", "about": "“METHODS FOR TREATING PULMONARY ARTERIAL HYPERTENSION” (ACTELION PHARMACEUTICALS LTD, priority 2019, published 2022)", "assay": "Pharmacokinetics of selexipag and ACT-333679 after oral and i.v. selexipag in subjects with stable PAH (Phase 3 switch study)", "type": "in vivo, human", "details": "for AUC / Cmax: human, plasma, steady state; for AUC: read-out: AUCτ, ss Geom. Mean; for Cmax: read-out: Cmax, ss Geom. Mean", "protocol": "This was a prospective, multicenter, open-label, single-sequence, cross-over, Phase 3 study. Based on the dose of selexipag received at study entry, subjects were allocated to one of the following groups, selexipag 200-1000 μg b.i.d. or selexipag 1200-1600 μg b.i.d. See, FIG. 1. The study comprised the following periods:\n(ii) Treatment and observation period: The treatment and observation period included the following consecutive periods: • Period 1 included oral selexipag pre-treatment period for 1 day, in-hospital. This period started with intake of the morning dose of oral selexipag on Day 1 at Visit 2 and ended the following day, before initiation of the first infusion of i.v. selexipag. • Period 2 included i.v. selexipag treatment period for 36 hours [3 infusions], in-hospital. This period started in the morning of Day 2 at Visit 2 with the start of the first infusion of i.v. selexipag and ended in the evening of Day 3 at Visit 2 before the evening administration of oral selexipag. Administration of oral selexipag was interrupted during the i.v. selexipag treatment period. • Period 3 included oral selexipag post-treatment period for 7 to 11 day. This period started in the evening of Day 3 at Visit 2 with the administration of oral selexipag and ended 7-11 days later, at Visit 3.\nSelexipag was provided as a dry powder to be reconstituted as an injectable solution for i.v. administration. Before administration, selexipag dry powder was to be reconstituted and diluted with sterile 0.9% NaCl solution. Each subject received an i.v. selexipag dose that corresponded to the subject's individual stable dose of oral selexipag. […] See, Table 4.\nThe intravenous infusion took place over a 87-minute period (2 infusions on Day 2 and 1 infusion on Day 3)\nThe following PK endpoints were analyzed for selexipag and its active metabolite, ACT-333679, after oral selexipag in Period 1 and after i.v. selexipag administration in Period 2. See, FIG. 2. • The area under the plasma-concentration time curve (AUC) during a dose interval at steady state (AUCτ, ss). • The maximum plasma concentration at steady state (Cmax, ss). • The time to reach maximum plasma concentration at steady state (tmax, ss). • Trough plasma concentration at steady state (Ctrough, ss).", "note": "Like-named read-outs stand apart in the source and are kept apart here."}
{"smiles": "CC(C)N(CCCCOCC(=O)O)c1cnc(-c2ccccc2)c(-c2ccccc2)n1", "note": "[ACT-333679]", "values": [{"measurement": "tmax, ss between the i.v. and oral selexipag periods", "setting": "Period 2 vs Period 1", "result": "comparable"}, {"measurement": "slope of dose proportional increase in exposure", "setting": "after i.v. selexipag, 450-1800 μg b.i.d. dose range", "result": 0.697}, {"measurement": "exposure after i.v. and oral selexipag administration", "setting": "conclusion of the study", "result": "comparable"}, {"measurement": "AUC", "setting": "iv, Period 2 (i.v. selexipag)", "result": 15.9, "unit": "ng·h/mL"}, {"measurement": "Cmax", "setting": "iv, Period 2 (i.v. selexipag)", "result": 2.6, "unit": "ng/mL"}, {"measurement": "AUC", "setting": "Period 1 (oral selexipag)", "result": 19.3, "unit": "ng·h/mL"}, {"measurement": "Cmax", "setting": "Period 1 (oral selexipag)", "result": 3.3, "unit": "ng/mL"}, {"measurement": "dose-normalized geometric mean ratio (i.v./oral selexipag) for AUCτ, ss (90% CI)", "setting": "i.v. to oral dose ratio 1.125", "result": "0.80 (0.71, 0.90)"}, {"measurement": "dose-normalized geometric mean ratio (i.v./oral selexipag) for Cmax, ss (90% CI)", "setting": "i.v. to oral dose ratio 1.125", "result": "0.79 (0.65, 0.96)"}]}
